Data from the supplement of paper PMC10307832.

Assays:
Assay in all cases: relative viability (nuclei count vs DMSO), 5 days (fraction); higher = more cells survive
[1] = compound: CS(=O)(=O)N1CCN(Cc2cc3nc(-c4cccc5[nH]ncc45)nc(N4CCOCC4)c3s2)CC1 [Pictilisib] + COc1cc2c(Oc3ccc(NC(=O)C4(C(=O)Nc5ccc(F)cc5)CC4)cc3F)ccnc2cc1OCCCN1CCOCC1 [Foretinib] (partner 0.25 µM)
How it was run: (§1)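 Lung cancer cell lines were seeded in 1536-well plates and dosed by pin tool the next day, with either a single drug or a fixed anchor-drug dose combined with five library-drug doses (not always all listed) spaced in √10 steps. Five days later, one step fixed the cells and stained their nuclei (final 0.05% Triton X-100, 1% formaldehyde, 1 ug/ml Hoechst), and nuclei were counted on 4× images. Relative viability is the nuclei count in treated wells divided by the count in vehicle wells, and each value is the median of duplicate plates.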

[2] = compound: CS(=O)(=O)N1CCN(Cc2cc3nc(-c4cccc5[nH]ncc45)nc(N4CCOCC4)c3s2)CC1 [Pictilisib] + NC(=O)Nc1cc(-c2cccc(F)c2)sc1C(=O)N[C@H]1CCCNC1 [AZD7762] (partner 0.2 µM)
How it was run: as §1

[3] = compound: CS(=O)(=O)N1CCN(Cc2cc3nc(-c4cccc5[nH]ncc45)nc(N4CCOCC4)c3s2)CC1 [Pictilisib] + O=C(CCCCCCC(=O)Nc1ccccc1)NO [Vorinostat] (partner 1 µM)
How it was run: as §1

[4] = compound: NC1(c2ccc(-c3nc4ccn5c(=O)[nH]nc5c4cc3-c3ccccc3)cc2)CCC1 [MK-2206] + Cc1nc(Nc2ncc(C(=O)Nc3c(C)cccc3Cl)s2)cc(N2CCN(CCO)CC2)n1 [Dasatinib] (partner 0.075 µM)
How it was run: as §1

[5] = compound: NC1(c2ccc(-c3nc4ccn5c(=O)[nH]nc5c4cc3-c3ccccc3)cc2)CCC1 [MK-2206] + NC(=O)Nc1cc(-c2cccc(F)c2)sc1C(=O)N[C@H]1CCCNC1 [AZD7762] (partner 0.2 µM)
How it was run: as §1

Cell Line	relative viability ([1]; first compound 0.02 µM)	relative viability ([1]; first compound 0.06325 µM)	relative viability ([1]; first compound 0.6325 µM)	relative viability ([1]; first compound 2 µM)	relative viability ([2]; first compound 0.02 µM)	relative viability ([2]; first compound 0.06325 µM)	relative viability ([2]; first compound 0.6325 µM)	relative viability ([2]; first compound 2 µM)	relative viability ([3]; first compound 0.02 µM)	relative viability ([3]; first compound 0.06325 µM)	relative viability ([3]; first compound 0.6325 µM)	relative viability ([3]; first compound 2 µM)	relative viability ([4]; first compound 0.01 µM)	relative viability ([4]; first compound 0.03162 µM)	relative viability ([4]; first compound 0.3162 µM)	relative viability ([4]; first compound 1 µM)	relative viability ([5]; first compound 0.01 µM)	relative viability ([5]; first compound 0.3162 µM)	relative viability ([5]; first compound 1 µM)	relative viability ([5]; first compound 0.03162 µM)
SW 900	0.93	0.815	0.774	0.533	0.747	0.623	0.431	0.352	0.695	0.579	0.382	0.231	0.573	0.636	0.531	0.476	0.531	0.591	0.728	
PC-3 [JPC-3]	1.01	1.09	0.931	0.827	0.812	0.844	0.491	0.324	0.953	0.548	0.613	0.418	0.968	1.01	1.06	0.934	0.881	0.774	0.334	0.849
NCI-H1703	0.34	0.372	0.321	0.27	0.148	0.175	0.104	0.119									0.14	0.112	0.112	0.105
EPLC-272H	0.711	0.687	0.376	0.173	0.25	0.279	0.173	0.14	0.477	0.403	0.449	0.23	0.486	0.333	0.256	0.306	0.23	0.202	0.175	0.185
NCI-H1792					0.631	0.575	0.339	0.109					0.758	0.845	0.913	0.819	0.613	0.529	0.293	0.702
NCI-H2085	0.858	0.811	0.572	0.329	0.963	1.06	0.354	0.287	0.792	0.832	0.498	0.319	0.257	0.234	0.253	0.242	0.85	0.918	0.769	0.954
LK-2	0.999	0.885	0.812	0.347	0.357	0.392	0.147	0.0792	0.292	0.291	0.214	0.139	0.231	0.299	0.327	0.19	0.325	0.259	0.182	0.312
NCI-H1395	0.966	1.01	0.962	0.588	0.44	0.416	0.375	0.338	1.08	0.727	0.498	0.369	0.435	0.399	0.413	0.362	0.407	0.388	0.351	0.369
ABC-1	1.37	0.903	0.863	0.803	1	0.741	0.657	0.609	0.83	1.07	0.859	0.691	0.499	0.534	0.388	0.399	0.795	0.85	0.814	0.787
RERF-LC-KJ	0.879	0.847	0.709	0.627	0.999	0.916	0.855	0.55	0.732	0.699	0.573	0.461	0.788	0.796	0.607	0.626	0.915	0.84	1.01	1.15
LU99A	1.04	0.866	0.674	0.464	0.423	0.395	0.266	0.185	0.548	0.593	0.327	0.225	0.524	0.733	0.48	0.498	0.376	0.332	0.362	0.169
NCI-H650	0.984	1.09	1	0.877	0.806	0.95	0.998	0.655	0.533	0.427	0.378	0.164	0.448	0.442	0.453	0.326	1	1.13	1	0.706
NCI-H2347	0.843	0.937	1.19	0.438	0.796	0.806	0.546	0.396	0.669	0.607	0.416	0.321	0.381	0.315	0.281	0.254	0.778	0.649	0.636	0.652
HARA	0.828	0.906	0.851	0.581	0.246	0.357	0.302	0.245	0.712	0.35	0.299	0.239	0.321	0.302	0.329	0.227	0.0277	0.179	0.4	0.264
NCI-H2228	0.853	0.917	0.496	0.291					0.524	0.72	0.434	0.253	0.533	0.485	0.355	0.266				
EKVX	0.855	0.88	0.721	0.438	0.732	0.703	0.41	0.315	0.734	0.538	0.56	0.254	0.73	0.522	0.536	0.569	0.738	0.751	0.704	0.886
HCC-827	0.996	1.04	0.931	0.392	0.17	0.153	0.154	0.122	0.827	0.811	0.829	0.559	0.476	0.272	0.258	0.362	0.325	0.227	0.186	0.184
NCI-H1755	0.901	0.883	0.778	0.58	0.452	0.387	0.354	0.298	0.795	0.812	0.642	0.354	0.443	0.424	0.406	0.35	0.508	0.458	0.432	0.328
NCI-H661	1.01	1.06	1.05	0.645					0.857	0.826	0.936	0.745	0.898	0.907	0.856	0.949				
NCI-H1944	0.866	0.737	0.627	0.382	0.555	0.477	0.319	0.236	0.61	0.494	0.375	0.201	0.243	0.227	0.198	0.182	0.539	0.472	0.5	0.254
NCI-H23	0.919	0.94	0.778	0.437	0.203	0.258	0.209	0.155	0.636	0.722	0.349	0.263	0.808	0.845	0.787	0.423	0.333	0.188	0.229	0.192

Cell Line	relative viability ([1]; first compound 0.02 µM)	relative viability ([1]; first compound 0.06325 µM)	relative viability ([1]; first compound 0.6325 µM)	relative viability ([1]; first compound 2 µM)	relative viability ([2]; first compound 0.02 µM)	relative viability ([2]; first compound 0.06325 µM)	relative viability ([2]; first compound 0.6325 µM)	relative viability ([2]; first compound 2 µM)	relative viability ([3]; first compound 0.02 µM)	relative viability ([3]; first compound 0.06325 µM)	relative viability ([3]; first compound 0.6325 µM)	relative viability ([3]; first compound 2 µM)	relative viability ([4]; first compound 0.01 µM)	relative viability ([4]; first compound 0.03162 µM)	relative viability ([4]; first compound 0.3162 µM)	relative viability ([4]; first compound 1 µM)	relative viability ([5]; first compound 0.01 µM)	relative viability ([5]; first compound 0.3162 µM)	relative viability ([5]; first compound 1 µM)	relative viability ([5]; first compound 0.03162 µM)
NCI-H1648					0.777	0.735	0.56	0.316	0.393	0.378	0.239	0.19					0.657	0.797	0.855	0.481
NCI-H522					0.967	0.865	0.673	0.571	0.857	0.866	0.757	0.608	0.98	0.842	0.857	0.894	0.85	0.993	0.762	0.763
HCC-366	0.978	0.936	0.68	0.329	0.316	0.259	0.204	0.0615	0.45	0.368	0.226	0.118	0.696	0.68	0.434	0.222	0.26	0.244	0.18	0.204
EBC-1	0.122	0.0955	0.112	0.115																
ChaGo-K-1	0.896	0.924	0.838	0.721	0.858	0.913	0.864	0.784	0.797	0.773	0.64	0.609	0.61	0.721	0.55	0.447	0.875	0.858	0.93	0.796
NCI-H1299	1.06	1.19	1.22	1.06																
NCI-H1623	0.773	0.792	0.639	0.348									0.518	0.471	0.556	0.423				
COR-L23	1.01	1.07	0.979	0.934					0.491	0.407	0.386	0.286	0.452	0.527	0.494	0.536				
HCC-44					0.978	0.994	1.05	1.22	1.19	1.14	1.17	0.783					0.961	1.04	1.02	0.98
IA-LM	1.2	1.14	0.894	0.518					0.917	0.97	0.881	0.373								
NCI-H520	0.695	0.694	0.4	0.244					0.794	0.73	0.353	0.203	0.179	0.178	0.189	0.18				
A549	1.04	0.937	0.771	0.431																
NCI-H2009	1.28	1.17	1.13	0.812					0.766	0.723	0.645	0.5	0.296	0.309	0.287	0.325				
NCI-H1563	0.839	0.935	0.674	0.532									0.492	0.449	0.406	0.407				
Calu-6	0.979	0.959	0.834	0.703																
NCI-H1650	1.25	1.39	1.03	0.441					0.566	0.666	0.819	0.358	0.312	0.273	0.215	0.244				
SK-LU-1	0.878	0.892	0.652	0.422					0.857	0.818	0.618	0.511	0.196	0.19	0.198	0.151				
SK-MES-1	1.02	0.86	0.494	0.271					1.11	1.12	0.856	0.511	0.396	0.437	0.356	0.425				
NCI-H2023	0.838	0.804	0.578	0.183					0.685	0.662	0.35	0.178	0.6	0.542	0.443	0.362				
COR-L 105	1.08	1.09	0.996	0.49					0.91	0.874	0.594	0.606	0.411	0.409	0.305	0.289				
SW 1573	0.865	0.805	0.706	0.501					0.767	0.733	0.35	0.217	0.431	0.554	0.364	0.419				
